Test results from the SangsterLogP compilation.

In order of falling logP:
1. CC(C)(C)c1ccc(COCC(Cn2cncn2)c2ccc(Cl)cc2Cl)cc1 (stereo not drawn)  4.84
2. Clc1ccc(C(COCCCc2ccccc2)Cn2cncn2)c(Cl)c1 (stereo not drawn)  4.77
3. Clc1ccc(COCC(Cn2cncn2)c2ccc(Cl)cc2Cl)c(Cl)c1 (stereo not drawn)  4.71
4. Clc1ccc(C(COCc2cccc(Oc3ccccc3)c2)Cn2cncn2)c(Cl)c1 (stereo not drawn)  4.58
5. Clc1ccc(C(COCc2ccc3ccccc3c2)Cn2cncn2)c(Cl)c1 (stereo not drawn)  4.48
6. Clc1ccc(C(COCc2ccc(OCc3ccccc3)cc2)Cn2cncn2)c(Cl)c1 (stereo not drawn)  4.46
7. Clc1ccc(C(COCc2cccs2)Cn2cncn2)c(Cl)c1 (stereo not drawn)  4.42
8. Clc1ccc(C(COCc2ccc(-c3ccccc3)cc2)Cn2cncn2)c(Cl)c1 (stereo not drawn)  4.29
9. Clc1ccc(C(COCC=Cc2ccccc2)Cn2cncn2)c(Cl)c1 (stereo not drawn)  4.21
10. CC(C)=CCOCC(Cn1cncn1)c1ccc(Cl)cc1Cl (stereo not drawn)  3.91
11. COc1cccc(COCC(Cn2cncn2)c2ccc(Cl)cc2Cl)c1 (stereo not drawn)  3.85
12. Clc1ccc(C(COCc2ccccc2)Cn2cncn2)c(Cl)c1 (stereo not drawn)  3.83
13. C=C(C)COCC(Cn1cncn1)c1ccc(Cl)cc1Cl (stereo not drawn)  3.72
14. O=[N+]([O-])c1ccc(COCC(Cn2cncn2)c2ccc(Cl)cc2Cl)cc1 (stereo not drawn)  3.72
15. C=C(Cl)COCC(Cn1cncn1)c1ccc(Cl)cc1Cl (stereo not drawn)  3.7
16. C=CCOCC(Cn1cncn1)c1ccc(Cl)cc1Cl (stereo not drawn)  3.49
17. C#CCOCC(Cn1cncn1)c1ccc(Cl)cc1Cl (stereo not drawn)  2.93
18. N#CCCOCC(Cn1cncn1)c1ccc(Cl)cc1Cl (stereo not drawn)  0.36
